Assay [1] concerns expression of SEQ ID NO:78 in PHA blasts (T cell blasts derived from PBMCs). The assay can be described thus: Microarray analysis of SEQ ID NO:78 expression in reactivated PHA blasts versus untreated PHA blasts. As to conditions: PHA blasts stimulated for 2 hours, versus matching untreated PHA blasts, one donor tested. Type of assay: cell-based, human. The method, then: (§1) Total RNA is isolated from tissue samples using the guanidinium thiocyanate method and poly(A)^+ RNA is purified using the oligo-(dT) cellulose method. Each poly(A)^+ RNA sample is reverse transcribed using MMLV reverse-transcriptase, 0.05 pg/μl oligo-(dT) primer (21 mer), 1× first strand buffer, 0.03 units/μl RNase inhibitor, 500 μM dATP, 500 μM dGTP, 500 μM dTTP, 40 μM dCTP, 40 μM dCTP-Cy3 (BDS) or dCTP-Cy5 (Amersham Biosciences). The reverse transcription reaction is performed in a […] containing 200 ng poly(A)^+ RNA with GEMBRIGHT kits (Incyte). Specific control poly(A)^+ RNAs are synthesized by in vitro transcription from non-coding yeast genomic DNA. […]
(§2) Reporter-labeled hybridization complexes are detected with a microscope equipped with an Innova 70 mixed gas 10 W laser (Coherent, Inc., Santa Clara Calif.) capable of generating spectral lines at 488 nm for excitation of Cy3 and at 632 nm for excitation of Cy5. […]
(§3) A grid is superimposed over the fluorescence signal image such that the signal from each spot is centered in each element of the grid. The fluorescence signal within each element is then integrated to obtain a numerical value corresponding to the average intensity of the signal. […]

In assay [2] the test system is expression of SEQ ID NO:78 in normal and Tangier disease derived fibroblasts. The assay can be described thus: Microarray analysis of SEQ ID NO:78 expression in fibroblasts cultured in the presence versus absence of cholesterol. Type of assay: cell-based, human. As to conditions: fibroblasts cultured in the presence of cholesterol versus same cell type in the absence of cholesterol (one of 'both types of comparisons'). The method, then:
as §1, §2, §3

Take `CCCCCCCCCCCCCC(=O)O[C@@H]1[C@@H](C)[C@@]2(O)[C@@H](C=C(CO)C[C@]3(O)C(=O)C(C)=C[C@@H]23)[C@@H]2C(C)(C)[C@]12OC(C)=O` [PMA, phorbol myristate acetate]: the “downregulation of SEQ ID NO:78” value in assay [1] is recorded as “at least two”. Take `CC(C)CCC[C@@H](C)[C@H]1CC[C@H]2[C@@H]3CC=C4C[C@@H](O)CC[C@]4(C)[C@H]3CC[C@]12C` [cholesterol]: the “downregulation of SEQ ID NO:78” value in assay [2] was “at least two”.

For the origin of these results see US20070276126A1, “Cell adhesion and extracellular matrix proteins” (Incyte Corporation, priority 2002, published 2007).
